This note sets out measurements from patent US9314539B2, “Nanosphere-histone acetyltransferase (HAT) activator composition, process and methods thereof” (JAWAHARLAL NEHRU CENTRE FOR ADVANCED SCIENTIFIC RESEARCH, priority 2012, dated 2016).

Read-outs that look alike come from different tables or passages of the source.

Data set [1] has as its system SHSY cells. The data set can be described thus: Cell permeability in neural cell lines. It is filed as cell-based. On the procedure:
The cell permeability tests of COMPOUND 1 alone is also carried out in various neural cell lines such as SHSY cells and the results are found to be similar to HeLa cells.

The test system of data set [2] is CBP. The data set can be described thus: HAT filter binding and gel fluorography assays with full length FLAG-CBP. In kind it is biochemical. On the procedure: TTK21 dissolved in DMSO is added to the reaction mixture at desired concentrations. Lane 1—Histone only, Lane 2—CBP enzyme added, Lane 3—DMSO added, Lane 4—50 μM TTK21, Lane 5—100 μM TTK21, Lane 6—200 μM TTK21 and Lane 7—275 μM TTK21.
COMPOUND 1 is synthesized using salicylic acid as a substrate as depicted in FIG. 1. […] The concentrations of COMPOUND 1 selected for this particular assay are 50 μM, 100 μM, 200 μM and 275 μM. […] These screening experiments are also repeated with full length FLAG-CBP (FIG. 3).
(§1) Highly purified HeLa core histones are incubated in HAT assay buffer at about 30° C. for a time-period of about 10 minutes with or without baculo virus expressed recombinant p300 or CBP in the presence or absence of small molecules (i.e. HAT activators). The incubation is followed by the addition of about 1 μl of 3.6 Ci/mmol ^3H-acetyl CoA (NEN-PerkinElmer) and further incubation for about 10 minutes in a final volume of 30 μl at 30° C. The mixture is blotted onto P-81 (Whatman) filter paper and radioactive counts are recorded on a Wallac 1409 liquid scintillator counter. For gel fluorographic assays, histones are isolated by trichloroacetic acid (TCA) precipitation using 25% TCA. The pellet obtained is washed twice with acetone and dissolved in 2×SDS loading dye, heated for about 5 mins and is followed by separation using 15% SDS-PAGE. […]

Data set [3] concerns HeLa cells. The data set can be described thus: Cell permeability: western blot of acetylated H3 in treated HeLa cells. In kind it is cell-based. On the procedure: (A) western blot analysis of TTK21 untreated and treated HeLa cells for 24 hours. […] Primary probing of the blot is done with AcH3 and re-probing is done by H3 antibody.
On the technique in general: Immunoblotting shows a protein as a band on a membrane.

In data set [4] the target is T1, p300 (Homo sapiens, UniProt Q09472). The data set is described as follows: HAT filter binding assay with p300. In kind it is biochemical. Particulars: for HAT activation (radioactivity counts): 200 μM, HeLa core histones as substrate. The text has this: To understand the mechanistic aspects HAT activation various small molecules are derivatized from CTPB. The initial tail less derivative of CTPB is nomenclatured as N-(4Chloro-3-trifluoromethy 1-pheny 1)-2-ethoxybenzamide [CTB]. CTB is further derivatized to TTK series of compounds (COMPOUNDS 1-9) (FIG. 29 A). These compounds are subjected to histone acetyltransferase assays (filter binding assay) to check for their ability to activate p300/CBP HAT. Core histones purified from HeLa nuclear pellet is used as the substrate and p300 purified from baculovirus infected Sf21 cells is used to determine the HAT modulation activity of these compounds. All compounds are used at a concentration of 200 μM in the HAT assays.
Highly purified HeLa core histones are incubated in HAT assay buffer at about 30° C. for a time-period of about 10 minutes with or without baculo virus expressed recombinant p300 or CBP in the presence or absence of small molecules (i.e. HAT activators). The incubation is followed by the addition of about 1 μl of 3.6 Ci/mmol ^3H-acetyl CoA (NEN-PerkinElmer) and further incubation for about 10 minutes in a final volume of 30 μl at 30° C. The mixture is blotted onto P-81 (Whatman) filter paper and radioactive counts are recorded on a Wallac 1409 liquid scintillator counter. For gel fluorographic assays, histones are isolated by trichloroacetic acid (TCA) precipitation using 25% TCA. The pellet obtained is washed twice with acetone and dissolved in 2×SDS loading dye, heated for about 5 mins and is followed by separation using 15% SDS-PAGE. Comassie staining is performed to ascertain the presence of equal loading in each reaction and is later dehydrated in DMSO for about 1 hour. Dehydrated gel is later incubated in scintillation fluid (PPO solution in DMSO) for about 45 minutes and rehydrated again in distilled water for about 4 hours. The gel is then dried using a gel drier and later exposed in an X-ray cassette using a film for about 5 days in −80° cooler. The film is then developed to obtain the intensity profiles for each of the reactions.

The target of data set [5] is T1, p300. The data set is described as follows: Gel fluorography HAT assay with p300. It is filed as biochemical. On the procedure: FIG. 2 depicts (A) filter binding assay to show activation of p300 by TTK21. […] TTK21 dissolved in DMSO is added to the reaction mixture at desired concentrations. Lane 1—Histone only, Lane 2—p300 enzyme added, Lane 3—DMSO added, Lane 4—50 μM TTK21, Lane 5—100 μM TTK21, Lane 6—200 μM TTK21 and Lane 7—275 μM TTK21.
as §1, with “SDS-PAGE. Comassie staining is performed to ascertain the presence of equal loading in each reaction and is later dehydrated in DMSO for about 1 hour.” for “SDS-PAGE.”

Data set [6] deals with neurons expressing double cortin. The data set is described as follows: Neurogenesis in dentate gyrus of hippocampus, doublecortin staining. It is filed as in vivo, mice. The note with it: intraperitoneal; 3 days. On the procedure:
FIG. 18 depicts CSP-TTK21 induced neurogenesis in the inner wall of dentate gyms of mice hippocampus. […] of either CSP alone or TTK21 alone or CSP-TTK21 is injected intraperitonially into mice and after 3 days the mice are anesthetized and fixed with 4% paraformaldehyde. Brains are dissected out and post-fixed, cryoprotected and frozen. 20 μm thick sections are obtained and the results are analyzed by immunohistochemistry. Further, immunofluorescence assays are performed using antibody against double cortin. Scale bar represents 50 μm.
A-D, Immunohistochemistry analysis of the dentate gyms of mice, 3 days after intraperitonial injection of either CSP alone or CSP-TTK21 (20 mg/kg of body weight) using an antibody against doublecortin (DCX) followed by DAB staining. A typical photograph is shown (A). Scale bars: 100 μm. The timeline for injection and euthanasia is shown. h, hour; d, day. […] (C) The average of the longest dendrites associated to all DCX positive-new neuron within one hippocampus is calculated and is represented as histogram for each condition (CSP: 141.1 μm vs. CSP-TTK21: 176.9 μm, *p=0.0177, 4-6 sections/animal). (D), (A) typical cropped image from A is shown, on which the number of dendrites crossing virtual lines drawned at 60, 90 and 120 μm from the SGZ was counted (n=5 images/animal). […]

T1 sequence (Q09472 whole entry, species assumed): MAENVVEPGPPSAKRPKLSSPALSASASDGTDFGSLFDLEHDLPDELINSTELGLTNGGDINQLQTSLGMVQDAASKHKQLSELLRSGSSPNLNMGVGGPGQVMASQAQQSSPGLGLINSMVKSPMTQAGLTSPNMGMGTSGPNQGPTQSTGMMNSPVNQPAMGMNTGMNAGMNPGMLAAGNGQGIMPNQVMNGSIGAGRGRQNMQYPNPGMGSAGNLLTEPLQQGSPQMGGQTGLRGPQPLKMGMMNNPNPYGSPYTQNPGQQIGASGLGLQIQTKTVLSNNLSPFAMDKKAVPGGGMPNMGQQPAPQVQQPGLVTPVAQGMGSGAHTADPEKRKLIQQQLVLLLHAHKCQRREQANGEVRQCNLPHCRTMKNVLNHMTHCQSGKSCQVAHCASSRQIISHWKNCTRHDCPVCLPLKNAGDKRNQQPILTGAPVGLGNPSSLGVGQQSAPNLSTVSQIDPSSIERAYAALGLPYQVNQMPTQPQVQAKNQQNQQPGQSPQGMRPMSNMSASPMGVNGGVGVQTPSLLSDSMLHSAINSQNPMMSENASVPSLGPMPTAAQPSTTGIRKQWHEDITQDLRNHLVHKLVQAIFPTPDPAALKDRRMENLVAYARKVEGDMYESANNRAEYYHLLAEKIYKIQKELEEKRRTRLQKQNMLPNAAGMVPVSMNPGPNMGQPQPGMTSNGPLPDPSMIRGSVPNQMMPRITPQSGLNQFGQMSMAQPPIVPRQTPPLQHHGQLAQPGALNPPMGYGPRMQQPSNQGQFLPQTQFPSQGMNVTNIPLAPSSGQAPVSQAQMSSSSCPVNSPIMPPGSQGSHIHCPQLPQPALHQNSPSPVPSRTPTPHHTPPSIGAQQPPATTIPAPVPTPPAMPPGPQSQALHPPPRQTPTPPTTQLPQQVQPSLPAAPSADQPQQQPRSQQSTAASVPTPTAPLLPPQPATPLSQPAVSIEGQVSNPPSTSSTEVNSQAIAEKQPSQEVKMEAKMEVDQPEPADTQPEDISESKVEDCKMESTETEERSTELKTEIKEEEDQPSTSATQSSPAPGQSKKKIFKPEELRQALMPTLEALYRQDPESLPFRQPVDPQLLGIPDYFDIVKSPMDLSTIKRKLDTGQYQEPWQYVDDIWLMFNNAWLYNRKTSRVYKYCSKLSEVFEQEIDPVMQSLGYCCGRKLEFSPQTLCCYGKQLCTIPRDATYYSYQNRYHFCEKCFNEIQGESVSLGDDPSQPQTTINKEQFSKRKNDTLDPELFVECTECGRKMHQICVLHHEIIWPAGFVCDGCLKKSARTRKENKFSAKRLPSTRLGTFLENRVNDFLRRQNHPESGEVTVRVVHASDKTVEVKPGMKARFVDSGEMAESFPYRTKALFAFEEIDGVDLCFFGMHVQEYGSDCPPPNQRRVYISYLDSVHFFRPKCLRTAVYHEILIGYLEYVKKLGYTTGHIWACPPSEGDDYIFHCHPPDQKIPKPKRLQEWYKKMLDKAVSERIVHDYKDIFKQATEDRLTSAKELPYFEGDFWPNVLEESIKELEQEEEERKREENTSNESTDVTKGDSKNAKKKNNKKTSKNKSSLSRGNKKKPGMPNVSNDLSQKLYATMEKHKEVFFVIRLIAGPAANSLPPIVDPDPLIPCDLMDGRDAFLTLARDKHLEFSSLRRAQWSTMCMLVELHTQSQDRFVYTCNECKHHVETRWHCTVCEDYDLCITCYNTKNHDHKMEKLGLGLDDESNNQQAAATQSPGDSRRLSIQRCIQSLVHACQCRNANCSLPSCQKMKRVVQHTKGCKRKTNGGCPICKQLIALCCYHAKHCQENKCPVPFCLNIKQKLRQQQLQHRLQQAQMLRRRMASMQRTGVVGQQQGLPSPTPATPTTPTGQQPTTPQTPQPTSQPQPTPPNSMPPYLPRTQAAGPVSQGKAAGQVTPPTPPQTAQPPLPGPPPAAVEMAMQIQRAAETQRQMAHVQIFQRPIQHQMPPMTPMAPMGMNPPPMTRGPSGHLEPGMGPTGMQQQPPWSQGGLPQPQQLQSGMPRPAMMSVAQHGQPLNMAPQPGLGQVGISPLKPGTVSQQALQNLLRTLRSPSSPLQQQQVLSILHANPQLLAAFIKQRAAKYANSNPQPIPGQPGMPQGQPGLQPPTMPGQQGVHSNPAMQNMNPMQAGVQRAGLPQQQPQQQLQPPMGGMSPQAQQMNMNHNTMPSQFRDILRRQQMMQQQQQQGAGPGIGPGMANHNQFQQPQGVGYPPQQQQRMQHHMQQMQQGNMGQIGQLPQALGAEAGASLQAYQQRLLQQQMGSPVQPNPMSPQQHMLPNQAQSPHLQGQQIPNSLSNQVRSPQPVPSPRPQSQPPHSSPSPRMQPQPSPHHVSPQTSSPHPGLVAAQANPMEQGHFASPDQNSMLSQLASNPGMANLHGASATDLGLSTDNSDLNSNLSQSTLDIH

Turning to `CCCOc1ccccc1C(=O)Nc1ccc(Cl)c(C(F)(F)F)c1` [COMPOUND 1, N-(4-Chloro-3-trifluoromethyl-phenyl)-2-n-propoxy-benzamide], the cell permeability result is “inability of the COMPOUND 1 molecule alone to enter into mammalian cells” in data set [1], “inability of the COMPOUND 1 molecule itself to enter into mammalian cells” in data set [3] and “impermeable to cells” in data set [3] (listed as TTK21). Moreover, the “activation of CBP, dose dependence” value in data set [2] (50-275 μM) is reported as “dose dependent activation of CBP”. For the same compound, the “concentration of maximum activation of CBP” value in data set [2] (filter binding and gel fluorography) turned out to be 275 µM. Moreover, in data set [3] (50-275 μM, 24 hrs), the “histone H3 acetylation” value is on record as “no alteration of histone H3 acetylation”. The “HAT activation (radioactivity counts)” value in data set [4] is on record as “one of the most efficient HAT activator”; in data set [4] (listed as TTK21), “significant increase in radioactivity counts compared to other compounds”. In addition, the “concentration of maximum activation of p300” value in data set [4] (filter binding) is 250 to 275 µM; in data set [5] it was 275 µM. The “activation of p300, dose dependence” value is recorded as “Dose dependent activation of p300” in data set [4] (filter binding, 50-275 μM) and “dose dependent manner” in data set [5] (50-275 μM). For the same compound, the “concentration from which activation of p300 starts” value in data set [4] (filter binding, tested 50, 100, 200, 275 μM) stood at 5004. The “double cortin expression in dentate gyrus” value in data set [6] is reported as “doesn't show double cortin expression”.
